The source of these data is patent US12697311B2, “Tetrahydrocurcumin compositions, methods of making, and methods of using the same” (Renibus Therapeutics, Inc., priority 2019, dated 2026).

The data set can be described thus: Plasma pharmacokinetics after single oral dose in male rats. The data set is classed as in vivo. The settings on record: single 100 mg oral dose; for AUC(0-t) / Cmax / Tmax: rat, plasma, N=3; for AUC(0-t) / Cmax: geometric mean; for Tmax: median. The protocol: The d6-THCu was formulated at a concentration of 10% w/w in the amounts and ratios provided below:
Compositions were prepared according to the following process. Set up the 5 L jacketed reaction vessel and Julabo circulation heater. Begin heating the Julabo to 90° C. Dispense Phosal 75 SA, Captex 300, and Labrasol ALF (Items 2, 3, and 4) into appropriately sized containers. Add sthe Phosal 75 SA, Captex 300, and Labrasol ALF to the 5 L reaction vessel. Mix contents until visually homogenous and product reaches a temperature of 85° C.±5° C. Add Tetrahydrocurcumin to vessel containing Phosal 75 SA, Captex 300, and Labrasol ALF while stirring. Mix until completely dissolved and visually homogenous. Reduce the Julabo temperature and allow the solution to cool to 30° C.±5° C. while continuing to stir. Package product by adding 50 mL to appropriate 60 mL bottles. Continue until product is exhausted.
The d6-THCu version of the compound provides a desirable release profile compared to non-deuterated THCu. Compositions were prepared using THCu as well as d6-THCu and their pk profiles were compared.
The plasma concentrations of THCu and THCu-d6 was compared by administering single doses of 100 mg to male rats. […] Individual animal pharmacokinetic parameters comparing THCu and d6-THCu is shown in FIG. 4, and statistics for the individual animal pharmacokinetic parameters is shown in FIG. 5.
Graphs of individual animal plasma concentrations versus time are shown in FIGS. 6-7 (linear axes) and FIGS. 8-9 (semi-logarithmic axes).

Entries after “also recorded” stand apart in the source; their conditions may differ.

A word on the AUC(0-t): it is the area under the concentration-time curve up to a stated or last time point. As a reminder, the Cmax is the maximum level reached in the sampled fluid or tissue. A word on the Tmax: it is the time from dosing to the highest level.

`COc1cc(CCC(=O)CC(=O)CCc2ccc(O)c(OC)c2)ccc1O` [THCu, tetrahydrocurcumin]: the AUC(0-t) is 38300 ng·h/mL, the highest level (Cmax) was 4070 ng/mL and the Tmax stood at 1 h.
Turning to `[2H]C([2H])([2H])Oc1cc(CCC(=O)CC(=O)CCc2ccc(O)c(OC([2H])([2H])[2H])c2)ccc1O` [THCu-d6, d6-Tetrahydrocurumin], the AUC(0-t) was found to be 43000 ng·h/mL, the Cmax is 2820 ng/mL and the Tmax is 24 h. Moreover, the “plasma concentration versus time / release profile” value (compared with non-deuterated THCu) is on record as “more stable release profile than the non-deuterated version; also recorded: no burst release of active agent after administration”.
